From patent publication US7935700B2, “Morpholine compound” (Mitsubishi Tanabe Pharma Corporation, priority 2004, dated 2011)
Where a name gives a salt, the structure may show the parent alone. Read-outs that look alike come from different tables or passages of the source.

Columns and labels:
CCR3 = biological target: T1, CCR3 (Homo sapiens, UniProt P51677); assay: Effect on intracellular calcium concentration in eosinophils upon CCL11 stimulation; type: cell-based; details: peripheral blood eosinophils of healthy subject, agonist CCL11 1.0 nmol/L, compound 3 min before stimulation, Fura-2 AM; read-out: IC50 (50% suppression of the increase in the intracellular calcium concentration)
T1 construct: Eosinophils separated from peripheral blood of healthy subject; endogenous in cells; host or cells: eosinophils separated from peripheral blood of healthy subject
T1 sequence (P51677 1-355): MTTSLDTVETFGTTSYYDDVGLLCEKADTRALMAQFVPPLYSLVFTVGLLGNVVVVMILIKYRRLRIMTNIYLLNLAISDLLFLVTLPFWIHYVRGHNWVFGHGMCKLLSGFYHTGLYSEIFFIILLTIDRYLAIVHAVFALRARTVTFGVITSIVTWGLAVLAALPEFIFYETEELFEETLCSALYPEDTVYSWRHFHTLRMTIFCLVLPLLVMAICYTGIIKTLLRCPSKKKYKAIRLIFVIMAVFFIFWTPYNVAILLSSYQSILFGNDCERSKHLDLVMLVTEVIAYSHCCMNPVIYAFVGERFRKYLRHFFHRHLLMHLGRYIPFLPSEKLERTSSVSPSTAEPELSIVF
Procedure: Effect on Intracellular Calcium Concentration
The effect of the compound of the present invention on intracellular calcium mobilization in peripheral blood eosinophils of healthy subject upon CCL11 stimulation was examined by the following method.
Eosinophils separated from peripheral blood of healthy subject were suspended in 0.5% bovine serum albumin-containing phosphate buffered saline, and incubated at 37° C. for 45 min in the presence of 5 μmol/L of Fura-2 AM (manufactured by DOJINDO LABORATORIES).
After incubation, the cells were washed 3 times with a measurement buffer (10 mmol/L HEPES, and 0.5% bovine serum albumin-containing hanks' balanced salt solution) to remove Fura-2 AM that was not incorporated into the cells.
Finally, the cells were adjusted to 1×10^6 cells/mL with the measurement buffer and preserved in a dark place until measurement. The intracellular calcium was measured using FDSS3000 manufactured by Hamamatsu Photonics K.K. In other words, the cell suspension (0.1 mL) loaded with Fura-2 AM was placed in a 96 well plate for measurement, the fluorescence intensity to the excitation light at wavelengths 340 nm and 380 nm was measured by FDSS3000, the ratio of the fluorescence intensity to the excitation light at these two wavelengths was determined, based on which the intracellular calcium concentration was calculated. As the agonist, used was CCL11 (1.0 nmol/L), which is a CCR3 selective ligand, and the antagonistic activity was determined as 50% suppression rate (IC50 value) of the increase in the intracellular calcium concentration, when eosinophils were treated with various concentrations of the compound of the present invention at 3 min before agonist stimulation.

human eosinophils = assay: Binding inhibitory test of chemokine ([125I]-eotaxin) to human eosinophils; details: 50 pmol/L [125I]-eotaxin, 2x10^5 eosinophils, 25°C, 1 hr; read-out: IC50 (concentration of test compound necessary for decreasing binding of [125I]-eotaxin to human eosinophils by 50%)
Procedure: Binding Inhibitory Test of Chemokine to Human Eosinophils
Human eosinophils were separated by the CD16 negative selection method from anticoagulation-treated peripheral blood of healthy subject (e.g., J. Immunol. Methods, vol. 145, pages 105-110, 1991). The separated eosinophils (2×10^5 cells), 50 pmol/L[^125I]-eotaxin (2000 Ci/mmoL, manufactured by Amersham Pharmacia Biotech) and a test compounds were mixed in 0.1 mL of binding buffer (50 mmol/L HEPES, 1 mmol/L CaCl2, 5 mmol/L MgCl2, 0.5% bovine serum albumin (BSA), 0.1% sodium azide, pH 7.4), and the mixture was incubated in a multiscreen plate (manufactured by MILLIPORE) at 25° C. for 1 hr. After incubation, the reaction mixture in the multiscreen plate was filtered by vacuum manifold, and washed with 0.6 mL of a cold washing buffer (50 mmol/L HEPES, 1 mmol/L CaCl2, 5 mmol/L MgCl2, 0.5 mol/L NaCl, 0.1% sodium azide, pH 7.4), and the radioactivity maintained on the filter was measured. […] The IC50 values (concentration of test compound necessary for decreasing binding of [^125I]-eotaxin to human eosinophils by 50%) of some of the compounds of the present invention were as follows.

[1] = tested on: mouse ovalbumin (OVA) induced allergic and biphasic ear edema; assay: Antigen (OVA) induced allergic and biphasic ear edema model; type: in vivo; details: male BALB/c mice, oral once a day from 2 days before induction, 3 or 10 mg/kg tested
Procedure: 3: Effect on Antigen Induced Allergic and Biphasic Ear Edema Model
The in vivo effect of the compound of the present invention was examined using a mouse ovalbumin (OVA) induced allergic and biphasic ear edema model. The model was prepared according to the method of Sugawara et al. (Allergy & Clinical Immunology International, Supplement No. 2, P 785, 2000). In other words, male BALB/c mice were immunized by intraperitoneal injection with 10 μg of OVA and 1 mg of aluminum hydroxide gel (Alum). At 14 days after immunization, OVA (5 μg) were subcutaneously injected to the both ears of the mouse, whereby ear edema was induced. The thickness of the ears was measured using a dial sickness gauge immediately before subcutaneous injection and 1 and 24 hrs after subcutaneous injection of OVA. The compound of the present invention was suspended in a vehicle, 0.5% hydroxypropylmethyl cellulose solution, and orally administered at 3 mg/kg or 10 mg/kg once a day using an orally gavage needle from 2 days before ear edema induction.

[2] = ear thickness 1 hr after OVA, read-out: Dose that showed a significant suppressive action vs vehicle, Immediate phase
[3] = ear thickness 24 hrs after OVA, read-out: Dose that showed a significant suppressive action vs vehicle, Late phase

| Structure (SMILES) | IC50 (CCR3) [nM] | IC50 (human eosinophils) [nM] | minimal effective dose [1, 2] [mg/kg] | minimal effective dose [1, 3] [mg/kg] |
| --- | --- | --- | --- | --- |
| O=C(O)Cc1csc(SCC(=O)NC[C@H]2CN(Cc3ccc(Cl)c(Cl)c3)CCO2)n1 [Example 2, (2S)-[4-(carboxymethyl)thiazol-2-ylthio]-N-{[4-(3,4-dichlorobenzyl)morpholin-2-yl]methyl}acetamide] | 1.8 | 2.4 | 3 | 3 |
| Nc1cccc(-c2csc(SCC(=O)NC[C@H]3CN(Cc4ccc(Cl)c(Cl)c4)CCO3)n2)c1 [Example 9, (2S)-[4-(3-aminophenyl)thiazol-2-ylthio]-N-{[4-(3,4-dichlorobenzyl)morpholin-2-yl]methyl}acetamide] | – | 12.7 | – | – |
| NC(=O)c1cc(-c2csc(SCC(=O)NC[C@H]3CN(Cc4ccc(Cl)c(Cl)c4)CCO3)n2)ccc1O [Example 10, (2S)-[4-(3-carbamoyl-4-hydroxyphenyl)thiazol-2-ylthio]-N-{[4-(3,4-dichlorobenzyl)morpholin-2-yl]methyl}acetamide] | – | 2.4 | – | – |
| O=C(CSc1nc(-c2ccncc2)cs1)NC[C@H]1CN(Cc2ccc(Cl)c(Cl)c2)CCO1 [Example 11, (2S)-N-{[4-(3,4-dichlorobenzyl)morpholin-2-yl]methyl}-[4-(pyridin-4-yl)thiazol-2-ylthio]acetamide] | – | 0.8 | – | – |
| COc1ccc(-c2csc(SCC(=O)NC[C@H]3CN(Cc4ccc(Cl)c(Cl)c4)CCO3)n2)cc1OC [Example 13, (2S)-N-{[4-(3,4-dichlorobenzyl)morpholin-2-yl]methyl}-[4-(3,4-dimethoxyphenyl)thiazol-2-ylthio]acetamide] | – | 0.4 | – | – |

Now from value to molecule, other results behind:

| IC50 (CCR3) [nM] | IC50 (human eosinophils) [nM] | Structure (SMILES) | minimal effective dose [1, 2] [mg/kg] | minimal effective dose [1, 3] [mg/kg] |
| --- | --- | --- | --- | --- |
| 1.6 | 0.4 | NC(=O)c1csc(SCC(=O)NC[C@H]2CN(Cc3ccc(Cl)c(Cl)c3)CCO2)n1 [Example 15, (2S)-(4-carbamoylthiazol-2-ylthio)-N-{[4-(3,4-dichlorobenzyl)morpholin-2-yl]methyl}acetamide] | – | – |
| 2.5 | 0.9 | NC(=O)CNC(=O)c1csc(SCC(=O)NC[C@H]2CN(Cc3ccc(Cl)c(Cl)c3)CCO2)n1 [Example 17, (2S)-{4-[(2-amino-2-oxoethyl)aminocarbonyl]thiazol-2-ylthio}-N-{[4-(3,4-dichlorobenzyl)morpholin-2-yl]methyl}acetamide] | 3 | 3 |
| 0.8 | 1 | Cc1nc(-c2csc(SCC(=O)NC[C@H]3CN(Cc4ccc(Cl)c(Cl)c4)CCO3)n2)no1 [Example 23, (2S)-N-{[4-(3,4-dichlorobenzyl)morpholin-2-yl]methyl}-[4-(5-methyl-1,2,4-oxadiazol-3-yl)thiazol-2-ylthio]acetamide hydrochloride] | – | – |
| – | 2.3 | Nc1ccc2c(c1)-c1nc(SCC(=O)NC[C@H]3CN(Cc4ccc(Cl)c(Cl)c4)CCO3)sc1C2 [Example 27, (2S)-(5-amino-8H-indeno[1,2-d]thiazol-2-ylthio)-N-{[4-(3,4-dichlorobenzyl)morpholin-2-yl]methyl}acetamide] | – | – |
| 4.9 | 34.3 | O=C(CSc1ccc(C(=O)O)cc1)NC[C@H]1CN(Cc2ccc(Cl)c(Cl)c2)CCO1 [Example 37, (2S)-(4-carboxyphenylthio)-N-{[4-(3,4-dichlorobenzyl)morpholin-2-yl]methyl}acetamide] | 3 | 3 |
